The numbers were not newly measured in publication PMC10539439 (Pharmacological Reports, 2023), which cites them from elsewhere.

For one data set, the target named is T1, TAAR1 (Homo sapiens, UniProt Q96RJ0).
T1 sequence (Q96RJ0 1-339): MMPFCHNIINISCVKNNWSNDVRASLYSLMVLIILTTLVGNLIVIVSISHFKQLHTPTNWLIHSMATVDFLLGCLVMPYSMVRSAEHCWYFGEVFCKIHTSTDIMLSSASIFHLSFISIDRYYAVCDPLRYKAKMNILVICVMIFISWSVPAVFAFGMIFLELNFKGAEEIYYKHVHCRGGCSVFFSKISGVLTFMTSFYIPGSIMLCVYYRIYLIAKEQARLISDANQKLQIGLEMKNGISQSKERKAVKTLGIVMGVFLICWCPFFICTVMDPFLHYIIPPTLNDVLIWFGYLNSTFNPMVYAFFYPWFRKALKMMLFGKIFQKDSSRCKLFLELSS
More on the design: method as in PMID 21525407. The settings on record: summary table; cited from earlier work.

The conditions of data set [1]: 5 mg/kg b.w., i.p.; cited from earlier work.
The conditions of data set [2]: 5 mg/kg b.w., i.p.; cited from earlier work. This is another data set of the same source.
The conditions of data set [3]: 5 mg/kg b.w., i.p.; cited from earlier work. The source holds these as a separate data set.

For `N=C(N)N/N=C/c1c(Cl)cccc1Cl` [Guanabenz], the “Intrinsic activity at TAAR1” value on TAAR1 was “Agonist [48]”. Also, the “Amount of calories consumed” value in data set [1] was “↓ [17]”. Besides, in data set [2], the Plasma cholesterol level entry is “↑ [17]”, the Plasma glucose level result was “↓ [17]” and the Plasma triglyceride level result was “↓ [17]”. Further, in data set [3], the “Blood pressure after one administration” value is “Change [17]”.
